2 molecules from article PMC3224403 (Indian Journal of Pharmaceutical Sciences, 2011) can be followed below.

SMILES strings stand for the structures.

Holding throughout (format): in vivo
The test system of series [1] is radiant heat induced rat tail flick. Description: Radiant heat induced rat tail flick method. As to conditions: dose 200 mg/Kg b.w. (5e, 5f: 150).
The test system of series [2] is ulcers. In words: Ulcerogenecity, arbitrary ulcer scoring system. As to conditions: dose 200 mg/Kg b.w. (5e, 5f: 150); p in parentheses.
For series [3], the system named is cotton pellet induced granulation tissue formation. Description: Cotton pellet induced granulation tissue formation method. As to conditions: dose 200 mg/Kg b.w. (5e, 5f: 150).
Series [4] relates to carrageenan-induced rat paw edema. Description: Carrageenan-induced rat paw edema method.
Series [5] deals with adrenal weight. Description: Adrenal weight change method. As to conditions: suppression of adrenal weights; dose 200 mg/Kg b.w. (5e, 5f: 150).
Series [6] has as its system maximum electroshock seizure. Description: Maximum electroshock seizure. As to conditions: dose 200 mg/Kg b.w. (5e, 5f: 150); Fischer's exact test.

With `CC(=O)Oc1ccccc1C(=O)O` [aspirin], the “Analgesic activity percent protection, Rat tail flick method” value in series [1] turned out to be 49.39%. Besides, the Ulcer index in series [2] was 43.33. Further, in series [3], the “Antiinflammatory activity Percentage Inhibition, Cotton pellet method” value is reported as 41.88%. Further, the “Antiinflammatory activity Percentage Inhibition, Carrageenan method, 1 h” value in series [4] (1 h, dose 200 mg/Kg b.w. (5e, 5f: 150)) is on record as 54.84%. Further, the “Antiinflammatory activity Percentage Inhibition, Carrageenan method, 3 h” value in series [4] (3 h, dose 200 mg/Kg b.w. (5e, 5f: 150)) is on record as 55.05%. Also, the “Antiinflammatory activity, carrageenan-induced rat paw edema, after 6 h” value in series [4] (6 h as printed in the text) is 73.81%. For the same molecule, in series [5], the “Antiinflammatory activity Percentage Inhibition, Adrenal weight method” value was determined as 50.13%.

Turning to `O=C1NC(=O)C(c2ccccc2)(c2ccccc2)N1` [phenytoin sodium], in series [6], the “Anticonvulsant activity, MES protection” value was 100%.
